Experiment [1] deals with HCT116 BAX WT, HCT116 BAX P168G and HCT116 BAX E75K cells. Kind of experiment: Caspase 3/7 activation assay. Type of experiment: cell-based, human. The settings on record: all HCT116 BAX cell lines, titration, 6 hrs.
Experiment [2] relates to HCT116 BAX E75K cells (HCT116 BAX KO reconstituted with BAX E75K, cytosolic monomer). Nature of the experiment: Cell viability (CellTiter-Glo) assay. Type of experiment: cell-based. The settings on record: Homo sapiens, HCT-116, after 24 h. (In ATP-based viability assays light output follows the ATP content of the culture.)
Experiment [3] concerns HCT116 BAX WT cells (HCT116 BAX KO reconstituted with BAX WT, cytosolic dimer). Nature of the experiment: Cell viability (CellTiter-Glo) assay. The conditions noted are these: Homo sapiens, HCT-116, 24 h. Type of experiment: cell-based.
In another experiment the test system is HCT116 BAX P168G cells. Kind of experiment: Caspase 3/7 activation assay. In kind it is cell-based, human.
Experiment [4] has as its system CALU-6 CRISPR/Cas9 BAX KO cells. Nature of the experiment: Caspase 3/7 activation assay. In kind it is cell-based, human. The conditions noted are these: CALU-6 BAX KO, 8 hrs.
Experiment [5] has as its system HCT116 BAX P168G cells (HCT116 BAX KO reconstituted with BAX P168G, cytosolic dimer). Kind of experiment: Cell viability (CellTiter-Glo) assay. The settings on record: up to highest concentration of 2 μM, 24 h.
The target in the next experiment is T1, BAX in CALU-6 cells (Homo sapiens, UniProt Q07812).
T1 construct: endogenous in cells; host or cells: CALU-6
T1 sequence (Q07812 whole entry): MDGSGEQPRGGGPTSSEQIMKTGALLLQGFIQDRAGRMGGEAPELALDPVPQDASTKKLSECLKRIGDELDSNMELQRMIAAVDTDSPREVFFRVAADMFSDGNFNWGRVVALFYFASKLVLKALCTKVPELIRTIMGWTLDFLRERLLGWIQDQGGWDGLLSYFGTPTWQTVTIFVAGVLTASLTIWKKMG
Kind of experiment: Active BAX immunoprecipitation with 6A7 antibody (BAX conformational change assay). In kind it is cell-based. The settings on record: 20 µM, 2 hrs. How it is done:
Cells were harvested and lysed with a 1% CHAPS lysis buffer (150 mM NaCl, 10 mM HEPES, pH 7.4, 1% CHAPS) supplemented with Halt protease inhibitor cocktail (Thermofisher Cat. 1861279). Whole-cell lysates were subjected to immunoprecipitation followed by immunoblotting against total BAX. Briefly, 500–1000 μg total protein in 600 µl was collected and incubated with 12 µl (50% slurry) of pre-equilibrated protein G agarose beads (Santa Cruz Biotechnology) for 30 min at 4 °C on a rotator. The precleared samples were then incubated with 5 µl of 6A7 antibody (Santa Cruz Biotechnology Cat. 23959) overnight at 4 °C. The next day, 20 µl (50% slurry) of pre-equilibrated G agarose beads (Santa Cruz Biotechnology) were added to the samples and incubated for 2 h at 4 °C. The beads were pelleted, washed with the lysis buffer 3 times, and protein eluted by heating the beads at 90 °C for 15 minutes in 1X LDS/DTT loading buffer. The immunoprecipitates were subjected to electrophoresis on 4–12% NuPage gels (Life Technologies). For visualization of proteins using Odyssey Infrared Imaging System (LI-COR Biosciences), membranes were blocked in PBS containing 5% milk powder for 1 hour at room temperature. Primary antibodies were incubated overnight at 4 °C. After washing, membranes were incubated with an IRdye800-conjugated goat anti-rabbit IgG (1:10, 000) or IRDye800- conjugated goat anti-mouse IgG (1:20,000 dilution) secondary antibodies (LI-COR Biosciences). Antibodies were used to detect the following proteins on membrane: BAX (Cell Signaling Cat. 2772) and β-Actin (Sigma Cat. A1978) or β-tubulin (Cell Signaling Cat. 2146).

Another experiment relates to SUDHL-5 cells. Nature of the experiment: Cell viability (CellTiter-Glo) assay. In kind it is cell-based. The conditions noted are these: Homo sapiens, SU-DHL-5; SUDHL-5, 72 hrs.
For experiment [6], the target named is cytosolic BAX (endogenous, human cell lines) (human (endogenous in human cell lines)) (UniProt Q07812). Kind of experiment: SEC; cytosolic fraction (2.5 mg, lysis without detergent) on Superdex 200 10/300 GL in IBc buffer (10 mM Tris HCl, 1 mM EGTA, 200 mM sucrose, pH 7.5), 4 °C; fractions blotted for BAX; cell lines with BAX centered at 14–14.5 ml (CALU-6, HCT-116, Namalwa, BEAS-2B, IMR90 and other lines of the panel). (In gel filtration, larger molecules generally elute earlier.)

Experiment [7] has as its target human BAX WT in HCT116 BAX KO cells (human) (UniProt Q07812). Nature of the experiment: SEC; cytosolic fraction of HCT116 BAX KO cells reconstituted with BAX WT, P168G or E75K, untreated; Superdex 200 10/300 GL in IBc buffer, 4 °C; fractions blotted for BAX.
Experiment [8] has as its target FITC-BIM SAHB, hydrocarbon-stapled peptide corresponding to the BH3 domain of BIM. Nature of the experiment: fluorescence polarisation; direct binding: FITC-BIM SAHB (25 nM) with serial dilutions of full-length BAX; 10-minute time-point. On the technique in general: Polarisation of emitted light reports the rotation of a fluorescent probe.

pIC50: −log10 of the molar value. Structures can show the parent of a compound that is named as a salt.

Chain of recombinant human full-length (aa1–192) wild-type BAX (Q07812 whole entry, the tested form may be a part): as the sequence (Q07812 whole entry) above

In the case of `CC1(C)CCC(CN2CCN(c3ccc(C(=O)NS(=O)(=O)c4ccc(NCC5CCOCC5)c([N+](=O)[O-])c4)c(Oc4cnc5[nH]ccc5c4)c3)CC2)=C(c2ccc(Cl)cc2)C1` [ABT-199, Venetoclax], in experiment [1], the “caspase-3/7 activity (result in words)” value is on record as “failed to induce caspase-3/7 activity”.

By pIC50 is commonly meant the IC50 on a negative log10 scale, so that one unit is a factor of ten. Read a high pIC50 as a small IC50. Turning to `CC1(C)CCC(c2ccc(Cl)cc2)=C(CN2CCN(c3ccc(C(=O)NS(=O)(=O)c4ccc(N[C@H](CCN5CCOCC5)CSc5ccccc5)c(S(=O)(=O)C(F)(F)F)c4)cc3)CC2)C1` [ABT-263, Navitoclax], the figures for the pIC50 in [2] and in experiment [3] were 7.35 and 6.72, respectively. Further, in the experiment with HCT116 BAX P168G cells (titration, 6 hrs), the “caspase-3/7 activity (result in words)” value is “did not show caspase-3/7 activity”. The “caspase-3/7 activation (result in words)” value in experiment [4] is reported as “no caspase-3/7 activation was observed”. In addition, the “cell viability (result in words)” value in experiment [5] is “did not show decreased viability”.

As for `O=C(O)c1ccc(-n2c(/C=C/C3CCCC3)nc3ccc(I)cc3c2=O)cc1` [BDM19.2], the “6A7 epitope exposure and activation of BAX (result in words)” value on BAX in CALU-6 cells was “none of the analogs”. Same read-out and setting: next, `O=C(O)c1ccc(-n2c(/C=C/C3CC3)nc3ccc(I)cc3c2=O)cc1` [BDM19.3]: “none of the analogs”; `Cc1cccc(/C=C/c2nc3c(c(=O)n2-c2ccc(C(=O)O)cc2)CCCC3)c1` [BDM19.4]: “none of the analogs”. For `Cc1cccc(/C=C/c2nc3ccc(I)cc3c(=O)n2-c2ccc(C(=O)O)cc2)c1` [BDM19], the pIC50 in the experiment with SUDHL-5 cells is 5.87. For the same compound, the “caspase-3/7 activation (result in words)” value in experiment [4] is given as “no caspase-3/7 activation was observed”. In the case of `COc1cccc2c1C(=O)c1c(O)c3c(c(O)c1C2=O)C[C@@](O)(C(=O)CO)C[C@@H]3O[C@H]1C[C@H](N)[C@H](O)[C@H](C)O1` [doxorubicin, Doxorubicin hydrochloride], the “caspase-3/7 activation (result in words)” value in the experiment with HCT116 BAX P168G cells (various concentrations, 24 hrs) was “not responsive”.

One may read the stoichiometry N as the number of molecules, sites or subunits per partner or assembly. As to “cytosolic BAX (endogenous, human cell lines) (from UniProt Q07812 1-192) (natural protein)”, in experiment [6], the stoichiometry N was 2. On to “human BAX WT in HCT116 BAX KO cells (from UniProt Q07812 1-192) (natural protein)”, for which, in [7], the stoichiometry N was 2.

The EC75 is the point of the concentration-response curve where the effect stands at 75%. A lower EC75 goes with greater potency. Take “recombinant human full-length (aa1–192) wild-type BAX (from UniProt Q07812 1-192) (natural protein)”: the EC75 in experiment [8] worked out at 125 nM. This lies in the sub-micromolar range.

These data come from article PMC10725471, “Chemical modulation of cytosolic BAX homodimer potentiates BAX activation and apoptosis” (Nature Communications, 2023).
